Earlier results in patent US20110160274A1 (PANACEA BIOTEC LIMITED, priority 2008, published 2011).

Settings: after oral administration of fenofibrate

- plasma elimination half life: about 20 hours
Compound: CC(C)(Oc1ccc(C(=O)c2ccc(Cl)cc2)cc1)C(=O)O [fenofibric acid]
